From US12281149B2, “Modulators of G-protein coupled receptors” (priority 2021, dated 2025)
*1 amine or outer side, *2 acyl side, *3 side chain or, on linkers, in order; H or OH if unused. Where a SMILES comes first, the peptide text is derived from it. Side-chain parts run from the residue outwards. [ ]: non-standard residue; d: D form. The star is where a group is joined. Isobutyryl(2-(3-CN-5-F-Ph)) = CC(C)(C(=O)*)c1cc(F)cc(C#N)c1; Azetidine3carboxylic = O=C(C1CN([*:1])C1)[*:2]; C20 diacid = O=C(O)CCCCCCCCCCCCCCCCCCC(=O)*; γGlu = O=C(O)[C@H](CCC(=O)[*:2])N[*:1]; X42 = CCOc1cnn(C(C)(C)C(=O)*)c1; X55 = COc1cccc(C(C)(C)C(=O)*)c1; AEEA = NCCOCCOCC(=O)O; Aib = CC(C)(N)C(=O)O; βAla = NCCC(=O)O

Columns and labels:
Format in all cases: cell-based
[1] = target: T1, GIP receptor (Homo sapiens, UniProt P48546); test: HitHunter cAMP assay, GIP receptor; details: for EC50: CHO cells stably expressing GIP receptor, cAMP accumulation, 30 min, read-out: EC50 GIP-1R; for Emax: CHO cells, cAMP, normalized to maximum signal from GIP (high) and DMSO (low), read-out: Emax GIP-1R
T1 sequence (P48546 22-466): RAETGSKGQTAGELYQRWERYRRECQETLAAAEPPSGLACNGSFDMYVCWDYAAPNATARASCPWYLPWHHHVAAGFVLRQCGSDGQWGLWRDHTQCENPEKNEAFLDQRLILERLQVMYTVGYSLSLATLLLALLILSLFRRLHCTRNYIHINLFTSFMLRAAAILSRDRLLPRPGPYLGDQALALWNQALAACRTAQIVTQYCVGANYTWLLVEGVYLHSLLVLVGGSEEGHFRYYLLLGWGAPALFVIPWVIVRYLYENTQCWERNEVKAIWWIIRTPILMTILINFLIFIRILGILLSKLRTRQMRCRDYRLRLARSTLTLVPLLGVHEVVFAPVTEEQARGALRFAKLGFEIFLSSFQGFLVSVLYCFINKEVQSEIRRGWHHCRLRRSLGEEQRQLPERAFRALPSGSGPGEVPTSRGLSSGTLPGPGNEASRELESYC

[2] = target: T2, GLP-1 receptor (Homo sapiens, UniProt P43220); test: PathHunter β-arrestin assay, GLP-1 receptor; design: host or cells: PathHunter CHO-K1 GLP1R β-Arrestin Cell Line; details: β-arrestin-2 recruitment, PathHunter CHO-K1 GLP1R β-Arrestin Cell Line, 90 min at 37° C.; normalized to GLP-1; read-out: GLP-1R β Arrestin EC50
T2 sequence (P43220 24-463): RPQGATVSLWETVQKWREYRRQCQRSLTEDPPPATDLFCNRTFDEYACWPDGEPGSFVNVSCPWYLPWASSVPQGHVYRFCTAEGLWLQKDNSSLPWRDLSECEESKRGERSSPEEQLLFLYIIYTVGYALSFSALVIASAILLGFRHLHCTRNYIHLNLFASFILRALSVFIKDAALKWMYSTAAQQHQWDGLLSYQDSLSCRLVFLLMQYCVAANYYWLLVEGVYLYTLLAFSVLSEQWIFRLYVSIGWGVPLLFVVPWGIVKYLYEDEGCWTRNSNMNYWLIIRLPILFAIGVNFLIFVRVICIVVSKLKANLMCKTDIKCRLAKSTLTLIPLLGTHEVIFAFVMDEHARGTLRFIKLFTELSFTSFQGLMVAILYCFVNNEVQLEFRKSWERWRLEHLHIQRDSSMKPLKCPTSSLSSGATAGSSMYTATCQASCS

[3] = target: T1, GIP receptor; test: PathHunter β-arrestin assay, GIP receptor; design: host or cells: PathHunter CHO-K1 GIPR β-Arrestin Cell Line; details: β-arrestin-2 recruitment, PathHunter CHO-K1 GIPR β-Arrestin Cell Line, 90 min at 37° C.; normalized to GIP; read-out: GIPR β Arrestin EC50
[4] = target: T2, GLP-1 receptor; test: HitHunter cAMP assay, GLP-1 receptor; details: for EC50: CHO cells stably expressing human GLP-1 receptor, cAMP accumulation, 30 min, read-out: EC50 GLP-1R; for Emax: CHO cells, cAMP, normalized to maximum signal from GLP-1 (high) and DMSO (low), read-out: Emax GLP-1R

Structure (SMILES) | EC50 [1] [nM] | Emax [1] [%] | EC50 [2] [nM] | EC50 [3] [nM] | EC50 [4] [nM] | Emax [4] [%]
CC[C@H](C)[C@H](NC(=O)[C@H](CC(C)C)NC(=O)[C@H](Cc1c[nH]c2ccccc12)NC(=O)[C@H](CCC(N)=O)NC(=O)[C@@H](NC(=O)[C@H](Cc1ccccc1)NC(=O)[C@H](C)NC(=O)[C@H](CCCCNC(=O)COCCOCCNC(=O)COCCOCCNC(=O)CC[C@H](NC(=O)CCCCCCCCCCCCCCCCCCC(=O)O)C(=O)O)NC(=O)[C@H](CCC(N)=O)NC(=O)[C@H](C)NC(=O)[C@@H](NC(=O)[C@H](CCCCN)NC(=O)[C@H](CC(=O)O)NC(=O)[C@H](CC(C)C)NC(=O)C(C)(C)NC(=O)[C@@H](NC(=O)[C@H](CO)NC(=O)[C@H](Cc1ccc(O)cc1)NC(=O)[C@H](CC(=O)O)NC(=O)[C@H](CO)NC(=O)[C@@H](NC(=O)[C@H](Cc1ccccc1)NC(=O)[C@@H](NC(=O)CNC(=O)[C@H](CCC(=O)O)NC(=O)C1CN(C(=O)C(C)(C)c2cc(F)cc(C#N)c2)C1)[C@@H](C)O)[C@@H](C)O)[C@@H](C)CC)[C@@H](C)CC)C(C)C)C(=O)N[C@@H](C)C(=O)NCC(=O)NCC(=O)N1CCC[C@H]1C(=O)N[C@@H](CO)C(=O)N[C@@H](CO)C(=O)NCC(=O)N[C@@H](C)C(=O)N1CCC[C@H]1C(=O)N1CCC[C@H]1C(=O)N1CCC[C@H]1C(=O)N[C@@H](CO)C(N)=O [Compound 213] ({Isobutyryl(2-(3-CN-5-F-Ph))}-[Azetidine3carboxylic]EGTFTSDYSI[Aib]LDKIAQK([AEEA-AEEA-γGlu-C20 diacid])AFVQWLIAGGPSSGAPPPS-NH2) | 100 to 1000 | 92 | > 1000 | > 1000 | 100 to 1000 | 78
CC[C@H](C)[C@H](NC(=O)[C@H](CC(C)C)NC(=O)[C@H](Cc1c[nH]c2ccccc12)NC(=O)[C@H](CCC(N)=O)NC(=O)[C@@H](NC(=O)[C@H](Cc1ccccc1)NC(=O)[C@H](C)NC(=O)[C@H](CCCCNC(=O)COCCOCCNC(=O)COCCOCCNC(=O)CC[C@H](NC(=O)CCCCCCCCCCCCCCCCCCC(=O)O)C(=O)O)NC(=O)[C@H](CCC(N)=O)NC(=O)[C@H](C)NC(=O)[C@@H](NC(=O)[C@H](CCCCN)NC(=O)[C@H](CC(=O)O)NC(=O)[C@H](CC(C)C)NC(=O)C(C)(C)NC(=O)[C@@H](NC(=O)[C@H](CO)NC(=O)[C@H](Cc1ccc(O)cc1)NC(=O)[C@H](CC(=O)O)NC(=O)[C@H](CO)NC(=O)[C@H](C)NC(=O)[C@H](Cc1ccccc1)NC(=O)[C@@H](NC(=O)CNC(=O)[C@H](CCC(=O)O)NC(=O)CCNC(=O)C(C)(C)c1cc(F)cc(C#N)c1)[C@@H](C)O)[C@@H](C)CC)[C@@H](C)CC)C(C)C)C(=O)N[C@@H](C)C(=O)NCC(=O)NCC(=O)N1CCC[C@H]1C(=O)N[C@@H](CO)C(=O)N[C@@H](CO)C(=O)NCC(=O)N[C@@H](C)C(=O)N1CCC[C@H]1C(=O)N1CCC[C@H]1C(=O)N1CCC[C@H]1C(=O)N[C@@H](CO)C(N)=O [Compound 168] ({Isobutyryl(2-(3-CN-5-F-Ph))-βAla}-EGTFASDYSI[Aib]LDKIAQK([AEEA-AEEA-γGlu-C20 diacid])AFVQWLIAGGPSSGAPPPS-NH2) | 1 to 10 | 112 | > 1000 | < 1000 | 10 to 100 | 87
CC[C@H](C)[C@H](NC(=O)[C@H](CC(C)C)NC(=O)[C@H](Cc1c[nH]c2ccccc12)NC(=O)[C@H](CCC(N)=O)NC(=O)[C@@H](NC(=O)[C@H](Cc1ccccc1)NC(=O)[C@H](C)NC(=O)[C@H](CCCCNC(=O)COCCOCCNC(=O)COCCOCCNC(=O)CC[C@H](NC(=O)CCCCCCCCCCCCCCCCCCC(=O)O)C(=O)O)NC(=O)[C@H](C)NC(=O)[C@H](C)NC(=O)[C@@H](NC(=O)[C@H](CCCCN)NC(=O)[C@H](CC(=O)O)NC(=O)[C@H](CC(C)C)NC(=O)C(C)(C)NC(=O)[C@@H](NC(=O)[C@H](CO)NC(=O)[C@H](Cc1ccc(O)cc1)NC(=O)[C@H](CC(=O)O)NC(=O)[C@H](CO)NC(=O)[C@@H](NC(=O)[C@H](Cc1ccccc1)NC(=O)[C@@H](NC(=O)CNC(=O)[C@H](CCC(=O)O)NC(=O)CCNC(=O)C(C)(C)c1cc(F)cc(C#N)c1)[C@@H](C)O)[C@@H](C)O)[C@@H](C)CC)[C@@H](C)CC)C(C)C)C(=O)N[C@@H](C)C(=O)NCC(=O)NCC(=O)N1CCC[C@H]1C(=O)N[C@@H](CO)C(=O)N[C@@H](CO)C(=O)NCC(=O)N[C@@H](C)C(=O)N1CCC[C@H]1C(=O)N1CCC[C@H]1C(=O)N1CCC[C@H]1C(=O)N[C@@H](CO)C(N)=O [Compound 183] ({Isobutyryl(2-(3-CN-5-F-Ph))-βAla}-EGTFTSDYSI[Aib]LDKIAAK([AEEA-AEEA-γGlu-C20 diacid])AFVQWLIAGGPSSGAPPPS-NH2) | 10 to 100 | 95 | > 1000 | > 1000 | 0.1 to 1 | 96
CC[C@H](C)[C@H](NC(=O)[C@H](CC(C)C)NC(=O)[C@H](Cc1c[nH]c2ccccc12)NC(=O)[C@H](CCC(N)=O)NC(=O)[C@@H](NC(=O)[C@H](Cc1ccccc1)NC(=O)[C@H](C)NC(=O)[C@H](CCCCNC(=O)COCCOCCNC(=O)COCCOCCNC(=O)CC[C@H](NC(=O)CCCCCCCCCCCCCCCCCCC(=O)O)C(=O)O)NC(=O)[C@H](CCC(N)=O)NC(=O)[C@H](C)NC(=O)[C@@H](NC(=O)[C@H](CCCCN)NC(=O)[C@H](CC(=O)O)NC(=O)[C@H](CC(C)C)NC(=O)C(C)(C)NC(=O)[C@@H](NC(=O)[C@H](CO)NC(=O)[C@H](Cc1ccc(O)cc1)NC(=O)[C@H](CC(=O)O)NC(=O)[C@H](CO)NC(=O)[C@@H](NC(=O)[C@H](Cc1ccccc1)NC(=O)[C@@H](NC(=O)CNC(=O)[C@H](CCC(=O)O)NC(=O)CCNC(=O)C(C)(C)c1cccc(OC)c1)[C@@H](C)O)[C@@H](C)O)[C@@H](C)CC)[C@@H](C)CC)C(C)C)C(=O)N[C@@H](C)C(=O)NCC(=O)NCC(=O)N1CCC[C@H]1C(=O)N[C@@H](CO)C(=O)N[C@@H](CO)C(=O)NCC(=O)N[C@@H](C)C(=O)N1CCC[C@H]1C(=O)N1CCC[C@H]1C(=O)N1CCC[C@H]1C(=O)N[C@@H](CO)C(N)=O [Compound 209] ({X55-βAla}-EGTFTSDYSI[Aib]LDKIAQK([AEEA-AEEA-γGlu-C20 diacid])AFVQWLIAGGPSSGAPPPS-NH2) | 10 to 100 | 105 | > 1000 | > 1000 | 0.1 to 1 | 101
CCOc1cnn(C(C)(C)C(=O)NCCC(=O)N[C@@H](CCC(=O)O)C(=O)NCC(=O)N[C@H](C(=O)N[C@@H](Cc2ccccc2)C(=O)N[C@H](C(=O)N[C@@H](CO)C(=O)N[C@@H](CC(=O)O)C(=O)N[C@@H](Cc2ccc(O)cc2)C(=O)N[C@@H](CO)C(=O)N[C@H](C(=O)NC(C)(C)C(=O)N[C@@H](CC(C)C)C(=O)N[C@@H](CC(=O)O)C(=O)N[C@@H](CCCCN)C(=O)N[C@H](C(=O)N[C@@H](C)C(=O)N[C@@H](CCC(N)=O)C(=O)N[C@@H](CCCCNC(=O)COCCOCCNC(=O)COCCOCCNC(=O)CC[C@H](NC(=O)CCCCCCCCCCCCCCCCCCC(=O)O)C(=O)O)C(=O)N[C@@H](C)C(=O)N[C@@H](Cc2ccccc2)C(=O)N[C@H](C(=O)N[C@@H](CCC(N)=O)C(=O)N[C@@H](Cc2c[nH]c3ccccc23)C(=O)N[C@@H](CC(C)C)C(=O)N[C@H](C(=O)N[C@@H](C)C(=O)NCC(=O)NCC(=O)N2CCC[C@H]2C(=O)N[C@@H](CO)C(=O)N[C@@H](CO)C(=O)NCC(=O)N[C@@H](C)C(=O)N2CCC[C@H]2C(=O)N2CCC[C@H]2C(=O)N2CCC[C@H]2C(=O)N[C@@H](CO)C(N)=O)[C@@H](C)CC)C(C)C)[C@@H](C)CC)[C@@H](C)CC)[C@@H](C)O)[C@@H](C)O)c1 [Compound 152] ({X42-βAla}-EGTFTSDYSI[Aib]LDKIAQK([AEEA-AEEA-γGlu-C20 diacid])AFVQWLIAGGPSSGAPPPS-NH2) | 10 to 100 | 104 | > 1000 | > 1000 | 0.1 to 1 | 98
